Experimental data taken from patent US20110300110A1, “ENAMINOCARBONYL COMPOUND/BENEFICIAL ORGANISM COMBINATIONS” (BAYER CROPSCIENCE AG, priority 2008, published 2011).

Experiments:
Format in all cases: in vivo
[1] = tested on: Myzus persicae; assay: Larvae treatment Coccinella: infestation by Myzus persicae on Savoy cabbage; conditions: Coccinella larvae added
Procedure: (§1) Foliar treatment is carried out using compound (I-5) in a concentration of 75 g of active compound per hectare.
(§2) Drench treatment is carried out using compound (I-5) in a concentration of 10 mg of active compound per plant.
(§3) Foliar treatment with Karate Zeon CS100 as toxic control was carried out in a concentration of 12.5 g of active compound per hectare.
Beneficial species: Coccinella septempunctata L2 larvae Pest: Myzus persicae
Each experiment is carried out in 3 repetitions with in each case 2 pot cages with in each case 5 larvae.
For the experiment, Savoy cabbage plants are grown in pots having a diameter of 14 cm, placed in a breeding cage and infested thoroughly with Myzus persicae. Per experiment, 6 pots having a well-established aphid population are selected and the aphids are rated by estimation of their number. The plants are treated with the active compound solution of the appropriate concentration.
After the spray coating has dried on, a quartz sand layer of a thickness of about 1 cm is applied to the soil in the pot, and the pot cage is put over the plant. In each case 5 Coccinella larvae are then counted out, and in each case 5 specimen are added to the plants in the pot cage.
(§4) For each plant, at the beginning the Myzus persicae number is estimated at the appropriate points in time and the dead, dying and alive larvae are counted separately. All larvae, i.e. all larvae present on the plant and the surface of the quartz sand base, are counted.

[2] = tested on: Myzus persicae; assay: Larvae treatment Episyrphus: infestation by Myzus persicae on Savoy cabbage; conditions: Episyrphus larvae added
Procedure: as §1, §2, §3
(§5) Beneficial species: Episyrphus balteatus larvae Pest: Myzus persicae
(§6) Per experiment, 3 repetitions with in each case 2 pot cages with in each case 5 larvae are carried out.
(§7) For the experiment, Savoy cabbage plants are grown in pots having a diameter of 14 cm, placed in a breeding cage and infested thoroughly with Myzus persicae.
(§8) After the spray coating has dried on, a quartz sand layer of a thickness of about 1 cm is applied to the soil in the pot, and the pot cage is put over the plant. In each case 5 Episyrphus larvae are then counted out, and in each case 5 specimen are added to the plants in the pot cage.
as §4

[3] = tested on: Episyrphus balteatus larvae; assay: Larvae treatment Episyrphus: kill of beneficial species larvae on Savoy cabbage
Procedure: as §1, §2, §3, §5, §6, §7, §8, §4

[4] = tested on: Macrolophus caliginosus nymphs; assay: Residual test with nymphs of Macrolophus caliginosus on tomato leaves
Procedure: Foliar treatment is carried out using compound (I-5) in a concentration of 100 g of active compound per hectare.
Drench treatment is carried out using compound (I-5) in a concentration of 15 mg of active compound per plant.
Foliar treatment with Karate Zeon CS100 as toxic control was carried out in a concentration of 12.5 g of active compound per hectare. The active compound in its respective formulation is brought to the required concentration by dilution with water.
Tomato plants cultivated in a greenhouse are treated with the respective active compound solutions. 1, 8, 16 and 23 days after the application, leaves are plucked from the test plants (5 samples per plot). The individual leaves are then mounted in test cages. 10 Macrolophus caliginosus nymphs are added to each cage. The test cages are placed under controlled conditions in a climatized chamber. The kill of the insects/larvae is determined after 24, 48 and 72 hours of exposure.

[5] = 5 days after application, drench 10 mg a.i./plant
[6] = 5 days after application, foliar: (I-5) 75 g a.i./ha, Karate Zeon CS100 12.5 g a.i./ha
[7] = prior to application (baseline), drench 10 mg a.i./plant
[8] = prior to application (baseline), foliar: (I-5) 75 g a.i./ha, Karate Zeon CS100 12.5 g a.i./ha

O=C1C=C(N(Cc2ccc(Cl)nc2)CC(F)F)CO1 [compound (I-5), 4-{[(6-chloropyrid-3-yl)methyl](2,2-difluoroethyl)amino}furan-2(5H)-one]
Infestation by Myzus persicae (number per plant) [1, 5]: 165 number per plant
Infestation by Myzus persicae (number per plant) [1, 6]: 0 number per plant
Infestation by Myzus persicae (number per plant) [1, 7]: 552 number per plant
Infestation by Myzus persicae (number per plant) [1, 8]: 602 number per plant
Infestation by Myzus persicae (number per plant) [2, 5]: 23 number per plant
Infestation by Myzus persicae (number per plant) [2, 6]: 0 number per plant
Infestation by Myzus persicae (number per plant) [2, 7]: 394 number per plant
Infestation by Myzus persicae (number per plant) [2, 8]: 375 number per plant
kill of Episyrphus balteatus larvae [% Abbott] ([3]; 0 days after application, drench 10 mg a.i./plant): 0%
kill of Episyrphus balteatus larvae [% Abbott] ([3]; 0 days after application, foliar: (I-5) 75 g a.i./ha, Karate Zeon CS100 12.5 g a.i./ha): 0%
kill of Episyrphus balteatus larvae [% Abbott] ([3]; 1 day after application, drench 10 mg a.i./plant): 10.3%
kill of Episyrphus balteatus larvae [% Abbott] ([3]; 1 day after application, foliar: (I-5) 75 g a.i./ha, Karate Zeon CS100 12.5 g a.i./ha): 6.1%
kill of Episyrphus balteatus larvae [% Abbott] ([3]; 3 days after application, drench 10 mg a.i./plant): 10.3%
kill of Episyrphus balteatus larvae [% Abbott] ([3]; 3 days after application, foliar: (I-5) 75 g a.i./ha, Karate Zeon CS100 12.5 g a.i./ha): 9%
kill of Episyrphus balteatus larvae [% Abbott] [3, 5]: 0%
kill of Episyrphus balteatus larvae [% Abbott] [3, 6]: 0%
Activity against nymphs of Macrolophus caliginosus on tomato [% kill according to Schneider-Orelli] ([4]; leaves plucked 1 day after application, drench 15 mg a.i./plant): 0%
Activity against nymphs of Macrolophus caliginosus on tomato [% kill according to Schneider-Orelli] ([4]; leaves plucked 1 day after application, foliar: (I-5) 100 g a.i./ha, Karate Zeon CS100 12.5 g a.i./ha): 52.2%
Activity against nymphs of Macrolophus caliginosus on tomato [% kill according to Schneider-Orelli] ([4]; leaves plucked 8 days after application, drench 15 mg a.i./plant): 65.4%
Activity against nymphs of Macrolophus caliginosus on tomato [% kill according to Schneider-Orelli] ([4]; leaves plucked 8 days after application, foliar: (I-5) 100 g a.i./ha, Karate Zeon CS100 12.5 g a.i./ha): 72.2%
Activity against nymphs of Macrolophus caliginosus on tomato [% kill according to Schneider-Orelli] ([4]; leaves plucked 16 days after application, drench 15 mg a.i./plant): 35.7%
Activity against nymphs of Macrolophus caliginosus on tomato [% kill according to Schneider-Orelli] ([4]; leaves plucked 16 days after application, foliar: (I-5) 100 g a.i./ha, Karate Zeon CS100 12.5 g a.i./ha): 21.7%
Activity against nymphs of Macrolophus caliginosus on tomato [% kill according to Schneider-Orelli] ([4]; leaves plucked 23 days after application, drench 15 mg a.i./plant): 23.6%
Activity against nymphs of Macrolophus caliginosus on tomato [% kill according to Schneider-Orelli] ([4]; leaves plucked 23 days after application, foliar: (I-5) 100 g a.i./ha, Karate Zeon CS100 12.5 g a.i./ha): 41.8%
